Reference: patent US20160207951A1, “ORGANOMETALLIC COMPOUNDS FOR USE AS ANTHELMINTICS” (UNIVERSITÄT ZÜRICH, priority 2013, published 2016)
Where two headings read alike, the source gives them in different places.

How the values were obtained:
[1] = test system: Dirofilaria immitis; assay: activity in vitro against Dirofilaria immitis microfilariae (motility); parameters: dose or concentration left out as unconfirmed
[2] = test system: Haemonchus contortus; assay: activity in vitro against Haemonchus contortus (egg hatch and larval development)
[3] = test system: Trichostrongylus colubriformis; assay: activity in vitro against Trichostrongylus colubriformis (egg hatch and larval development); parameters: dose or concentration left out as unconfirmed
[4] = test system: H. contortus; assay: larval development assay, number of L3 H. contortus; parameters: species or system Haemonchus contortus
[5] = test system: C. elegans; assay: C. elegans movement inhibition assay
Description: Asynchronous N2 C. elegans worms (Bristol) were maintained on nematode growth medium (NGM) agar, seeded with a lawn on OP50 E. coli as a food-source, according to standard protocol (Maintenance of C. elegans; Stiernagle, T., Ed.; WormBook, 2006.). Worms were harvested from NGM plates by washing with M9 buffer (42 mmol/l Na2HPO4, 22 mmol/l KH2PO4, 86 mmol/l NaCl and 1 mmol/MgSO4), aspiration and collection in a 10 mL tube (Falcon). The average number of worms in 5 μL of this suspension was calculated by transferring 4×5 μL aliquots to a glass slide (Menzel Glaser), and worms were enumerated under a compound microscope (Olympus CH30). To adjust the suspension to contain 1 worm per μL, M9 buffer was either added or removed after pelleting worms at 600×g for 30 sec.
A volume of 70 μL of M9 buffer was added to each well in a 96-well plate, using a multichannel pipettor. A volume of 20 μL of worm suspension was added to each well using a single-channel pipettor, with a trimmed pipette tip (increased aperture to minimize damage to worms). The worm suspension was resuspended by flicking after every three wells to maintain consistency. The compounds were stored at 4° C., and diluted in dimethyl sulfoxide (DMSO) to achieve a 100 mmol/l concentration 1 hr prior to addition to assay. These stock solutions were diluted further in DMSO to create a series of 20 mmol/l, 2 mmol/l, 0.02 mmol/l and 0.002 mmol/l which were subsequently diluted 1:20 in M9 buffer to create 1 mmol/l, 0.1 mmol/l, 1 μmol/l and 0.1 μmol/l (all 5% (v/v) DMSO). […] A Zolvix (monepantel) dilution series was simultaneously created following the same dilution schema, and used as a positive control; 10 μL of 10% DMSO was added to achieve 1% DMSO vehicle control. 10 μL M9 was added to negative control wells (see FIG. 1). Plates were incubated at room temperature (22-24° C.) overnight at 20° C.
Immobile worms were counted as a percentage of total worms in each well using an Olympus SZ30 dissecting microscope. The immobile fraction was subtracted from the total, and this remainder was divided by the total to give a percentage of live worms per well.

[6] = test system: human lung fibroblasts MRC-5; assay: fluorometric cell viability assay (Resazurin) in MRC-5; conditions: read-out: IC50 in MRC-5
Description: (§1) Human cervical carcinoma cells (HeLa) were cultured in DMEM (Gibco) supplemented with 5% fetal calf serum (FCS, Gibco), 100 U/ml penicillin, 100 μg/ml streptomycin at 37° C. and 5% CO2. The normal human fetal lung fibroblast MRC-5 cell line was maintained in F-10 medium (Gibco) supplemented with 10% FCS (Gibco), 200 mmol/l L-Glutamine, 100 U/ml penicillin, and 100 μg/ml streptomycin at 37° C. and 5% CO2. To establish the anticancer potential of the compounds they were tested in one cell line, namely HeLa by a fluorometric cell viability assay using Resazurin (Promocell GmbH). […] 1 day before treatment, cells were plated in triplicates in 96-well plates at a density of 4×10^3 cells/well in 100 μl for HeLa and 7×10^3 cells/well for MRC-5 cells. Cells were treated with increasing concentrations of the compounds for 2 days. After 2 days, medium and drug were removed and 100 ml fresh medium containing Resazurin (0.2 mg/ml final concentration) were added. After 4 h of incubation at 37′C, the highly red fluorescent dye resorufin's fluorescence was quantified at 590 nm emission with 540 nm excitation wavelength in the SpectraMax M5 microplate Reader.

[7] = test system: human cervical cancer HeLa; assay: fluorometric cell viability assay (Resazurin) in HeLa; conditions: read-out: IC50 in HeLa
Description: as §1

[8] = MRC-5 cells, treated for 2 days, Resazurin
[9] = HeLa cells, treated for 2 days, Resazurin

Compound	Activity against Dirofilaria immitis at 10 [mg/mL] [1] [%]	Activity against Haemontus Contortus at 10 [mg/mL] [2] [%]	Activity against Trychostrongylus colubriformis at 10 [mg/mL] [3] [%]	Number of L3 H. contortus/100 μM [4]	Mobility in C. elegans at 50 μM [5] [%]	IC50 [6, 8] [µM]	IC50 [7, 9] [µM]	IC50 ([7]; Homo sapiens, HeLa, 48 h) [µM]	IC50 ([6]; Homo sapiens, MRC5, 48 h) [µM]
2-(hydroxymethyl)ferrocenecarboxaldehydeoxime [Compound 29]	12	47	49						
O=[C]=[Co]12(=[C]=O)(=[C]=O)[CH]3[C]1(CNC(=O)c1ccc(SC(F)(F)F)cc1)[Co]32(=[C]=O)(=[C]=O)=[C]=O (centres unmarked) [Compound 4]	68		44	76.7	2				
N-ferrocenyl-4-((trifluoromethyl)thio)benzamide [Compound 2]	69		80	>100	0	42	17.6		
CC(=O)OCc1ccc[c-]1C=O.[Ru+2].c1cc[cH-]c1 (centres unmarked) [Compound 36, 2-(Acetoxymethylruthenocene)carboxaldehyde]	11	52	54						
2-(hydroxymethyl)ferrocenylmethylamine [Compound 30]	0	24	11						
N#Cc1ccc(C(F)(F)F)c(OCc2ccc[c-]2CNC(=O)c2ccc(SC(F)(F)F)cc2)c1.[Fe+2].c1cc[cH-]c1 (centres unmarked) [Compound 6, N-(2-((5-cyano-2-(trifluormethyl)phenoxy)methyl)ferrocenyl)-4-((trifluoromethyl)thio)benzamide]		20	31	>100	1	26.7	27.2		
Trifluoromethylthioferrocene [Compound 38]	31	0	0						
CN(C)Cc1ccc[c-]1C=O.[Fe+2].c1cc[cH-]c1 (centres unmarked) [Compound 27, 2-(N,N-dimethylaminomethylferrocene)carboxaldehyde]	18	39	44						
O=C(NCC#CCO)c1ccc(SC(F)(F)F)cc1 [Compound 14, N-(4-hydroxybut-2-yn-1-yl)-4-((trifluoromethyl)thio)benzamide]	46	32	51					> 100	
O=C(NC[c-]1cccc1CO)c1ccc(SC(F)(F)F)cc1.[Fe+2].c1cc[cH-]c1 (centres unmarked) [Compound 3]	0	24	13	>100	4	44.6	20		
N#Cc1ccc(C(F)(F)F)c(OC[C]23[C]4(CNC(=O)c5ccc(SC(F)(F)F)cc5)[Co]2(=[C]=O)(=[C]=O)(=[C]=O)[Co]43(=[C]=O)(=[C]=O)=[C]=O)c1 (centres unmarked) [Compound 7, Dicobalthexacarbonyl-N-(4-(5-cyano-2-(trifluoromethyl)phenoxy)but-2-en-1-yl)-4-((trifluoromethyl)thio)benzamide]	100	63	25				26.8		
O=C[c-]1cccc1CO.[Fe+2].c1cc[cH-]c1 (centres unmarked) [Compound 31, 2-(Hydroxymethylferrocene)carboxaldehyde]		40	37						
N#Cc1ccc(C(F)(F)F)c(OCC#CCNC(=O)c2ccc(SC(F)(F)F)cc2)c1 [Compound 13, N-(4-(5-cyano-2-(trifluoromethyl)phenoxy)but-2-yn-1-yl)-4-((trifluoromethyl)thio)benzamide]	19	52	49					30.6	96.4
N-(2-cyano-1-hydroxypropan-2-yl)ruthenoceneamide [Compound 41]		0	0						
O=[C]=[Co]12(=[C]=O)(=[C]=O)[C]3(CO)[C]1(CNC(=O)c1ccc(SC(F)(F)F)cc1)[Co]32(=[C]=O)(=[C]=O)=[C]=O (centres unmarked) [Compound 5]	45	64	77						
Thiocyanatoruthenocene [Compound 39]	66	0	0						
2-(Hydroxymethyl)ruthenocenecarboxaldehyde oxime [Compound 32]	12	35	33						
I[c-]1cccc1.N#CS[c-]1cccc1.[Ru+2] [Compound 40, 1,1′-Thiocyanatoiodruthenocene]	98		55						
CC(C#N)(CO)NC(=O)[c-]1cccc1.[Fe+2].c1cc[cH-]c1 (centres unmarked) [Compound 10]			57	>100	4				
CC(=O)OCc1ccc[c-]1C=O.[Fe+2].c1cc[cH-]c1 (centres unmarked) [Compound 28, 2-(acetoxymethylferrocene)carboxaldehyde]	15	14	6						
C#CCNC(=O)c1ccc(SC(F)(F)F)cc1 [Compound 15]	28	51	51	>100	3				
